From patent publication US11744246B2, “Preparation of mammalian oocyte for fertilization via a soluble human PH20 hyaluronidase polypeptide” (SYNGENTA PARTICIPATIONS AG, priority 2017, dated 2023)

Assays:
Type in all cases: cell-based
[1] = test system: Botryotinia fuckeliana (Botrytis cinerea); experiment: Botryotinia fuckeliana (Botrytis cinerea)/Liquid Culture (Gray Mould); conditions: 72 h, liquid culture, growth inhibition photometrically 3-4 days after application, compared to untreated control
[2] = test system: Glomerella lagenarium (Colletotrichum lagenarium); experiment: Glomerella Lagenarium (Colletotrichum Lagenarium)/Liquid Culture (Anthracnose); conditions: Colletotrichum orbiculare, liquid culture, growth inhibition photometrically 3-4 days after application, compared to untreated control
Fusarium culmorum = experiment: microbe, parasite or virus in culture; conditions: 72 h, read-out: control of Fusarium culmorum
[3] = test system: Monographella nivalis (Microdochium nivale); experiment: Monographella nivalis (Microdochium nivale)/Liquid Culture (Foot Rot Cereals); conditions: 96 h, liquid culture, growth inhibition photometrically 4-5 days after application, compared to untreated control
[4] = test system: Magnaporthe grisea (Pyricularia oryzae); experiment: microbe, parasite or virus in culture; conditions: read-out: control of Magnaporthe grisea

Measured: inhibition of growth at 20 ppm

CC(COc1ccccc1F)(CC(F)(F)F)C(=O)Nc1cnc2c(F)cccc2c1 (stereo not shown) [E.01, 4,4,4-trifluoro-2-[(2-fluorophenoxy)methyl]-N-(8-fluoro-3-quinolyl)-2-methyl-butanamide]
≥ 80%: all assays above

CC(COc1cccc(F)c1)(CC(F)(F)F)C(=O)Nc1cnc2c(F)cccc2c1 (stereo not shown) [E.02, 4,4,4-trifluoro-2-[(3-fluorophenoxy)methyl]-N-(8-fluoro-3-quinolyl)-2-methyl-butanamide]
≥ 80%: all assays above

CC(COc1ccc(F)cc1)(CC(F)(F)F)C(=O)Nc1cnc2c(F)cccc2c1 (stereo not shown) [E.03, 4,4,4-trifluoro-2-[(4-fluorophenoxy)methyl]-N-(8-fluoro-3-quinolyl)-2-methyl-butanamide]
≥ 80%: all assays above

CC(C)(C)COCC(C)(CC(F)(F)F)C(=O)Nc1cnc2c(F)cccc2c1 (stereo not shown) [E.04, 2-(2,2-dimethylpropoxymethyl)-4,4,4-trifluoro-N-(8-fluoro-3-quinolyl)-2-methyl-butanamide]
≥ 80%: all assays above

CC(COc1ccc(Cl)cc1)(CC(F)(F)F)C(=O)Nc1cnc2c(F)cccc2c1 (stereo not shown) [E.05, 2-[(4-chlorophenoxy)methyl]-4,4,4-trifluoro-N-(8-fluoro-3-quinolyl)-2-methyl-butanamide]
≥ 80%: all assays above

CC1(OCC(C)(CC(F)(F)F)C(=O)Nc2cnc3c(F)cccc3c2)CCCC1 (stereo not shown) [E.06, 4,4,4-trifluoro-N-(8-fluoro-3-quinolyl)-2-methyl-2-[(1-methylcyclopentoxy)meth-yl]butanamide]
≥ 80%: all assays above

CC(COC1CCC1)(CC(F)(F)F)C(=O)Nc1cnc2c(F)cccc2c1 (stereo not shown) [E.07, 2-(cyclobutoxymethyl)-4,4,4-trifluoro-N-(8-fluoro-3-quinolyl)-2-methyl-butanamide]
≥ 80%: all assays above

CC(COC1CCCCC1)(CC(F)(F)F)C(=O)Nc1cnc2c(F)cccc2c1 (stereo not shown) [E.08, 2-(cyclohexoxymethyl)-4,4,4-trifluoro-N-(8-fluoro-3-quinolyl)-2-methyl-butanamide]
≥ 80%: all assays above
